From ChEMBL document CHEMBL1201862, “PubChem BioAssay data set” (2004)
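A five-concentration, 48-hour dose response in 96-well plates underlies each endpoint, interpolated linearly between surrounding concentrations. GI50: concentration for 50% inhibition of growth.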 Active and inactive are the calls of the source. Cut-off read from the data, not from the text of the source: active = GI50 up to about 1.1 µM and inactive = higher.

Key:
Assay in all cases: DTP human tumour cell line panel, 48 h
[1] = tested on: MDA-N
[2] = tested on: T47D
[3] = tested on: HOP-18
[4] = tested on: LXFL 529
[5] = tested on: KM-20L2
[6] = tested on: DLD-1
[7] = tested on: M19-MEL

Cc1cc(N2CCN(C)CC2)n2nc(-c3ccc(Cl)cc3)nc2n1
GI50 [1]: 92.9 µM (inactive)
GI50 [2]: > 100 µM (inactive)

O=S1(=O)CCN(Cc2ccccn2)CC1
GI50 [1]: > 100 µM (inactive)
GI50 [2]: > 100 µM (inactive)

O=C(O)C(=O)Cc1ccc2c(c1)OCO2
GI50 [1]: > 100 µM (inactive)
GI50 [2]: > 100 µM (inactive)

O=C(/C=C/c1ccc2c(c1)OCO2)NCc1ccco1
GI50 [1]: > 100 µM (inactive)
GI50 [2]: 19.4 µM (inactive)

COc1ccc(C2c3cc4c(cc3OC(N3CCCCC3)C2C)OCO4)cc1 (stereo unspecified)
GI50 [1]: > 100 µM (inactive)
GI50 [2]: 71 µM (inactive)

C=C1C(=O)C=C[C@]2(C)CC[C@H]3C(=C)C(=O)O[C@@H]3[C@@H]12
GI50 [1]: 1.88 µM (inactive)
GI50 [2]: 2.22 µM (inactive)

Cc1nn(C(=O)c2ccccc2O)c2c1C(c1ccc([N+](=O)[O-])cc1)SC(=N)N2 (stereo unspecified)
GI50 [1]: 2.89 µM (inactive)
GI50 [2]: 5.71 µM (inactive)

O=C1CCCc2ccc3c(c21)CC1(Cc2cc4c(cc2C1)CCCC4)C3
GI50 [2]: 5.38 µM (inactive)

O=C(CN1CCCC1=O)CS(=O)(=O)c1ccccc1
GI50 [1]: > 100 µM (inactive)

COC(=O)CC1C=CC(C)(OC)OO1 (stereo unspecified)
GI50 [1]: > 100 µM (inactive)
GI50 [2]: > 100 µM (inactive)

CCOC(=O)C1CCC(=O)N1C(=O)c1cccc(Cl)c1 (stereo unspecified)
GI50 [1]: > 100 µM (inactive)
GI50 [2]: > 100 µM (inactive)

CCNC1=C(NC(=O)c2ccccc2)C(=O)c2ccccc2C1=O
GI50 [1]: 4.9 µM (inactive)
GI50 [2]: 14.1 µM (inactive)

CC1=NC(=Cc2ccc([N+](=O)[O-])cc2)C(=O)N1n1c(-c2ccccc2)nc2ccccc2c1=O
GI50 [1]: 49 µM (inactive)
GI50 [2]: 39.8 µM (inactive)

CN(C)CCCNc1ccc2nnn3c4ccc(OC(=O)c5ccccc5)cc4c(=O)c1c23
GI50 [1]: 13.8 µM (inactive)
GI50 [2]: 18.7 µM (inactive)

CCCP1(=O)C=C(C)C(=C(Cl)Cl)C(C)=C1 (stereo unspecified)
GI50 [3]: > 100 µM (inactive)
GI50 [4]: 30.1 µM (inactive)
GI50 [5]: 18.3 µM (inactive)
GI50 [6]: 67.3 µM (inactive)
GI50 [7]: 47.9 µM (inactive)

CC/C=C\C/C=C\C1CC(=O)NCCCNCCCCN1 (stereo unspecified)
GI50 [4]: > 100 µM (inactive)
GI50 [5]: > 100 µM (inactive)
GI50 [6]: > 100 µM (inactive)
GI50 [7]: > 100 µM (inactive)

O=c1[nH]nc(-c2ccccc2)n1-c1cccc([N+](=O)[O-])c1
GI50 [1]: > 100 µM (inactive)
GI50 [2]: > 100 µM (inactive)

O=C(O)c1nc2ccc(C(F)(F)F)cc2nc1NCc1ccc(F)cc1
GI50 [1]: 28 µM (inactive)
GI50 [2]: 20.8 µM (inactive)

Cc1cccc(Br)[n+]1[O-]
GI50 [2]: > 100 µM (inactive)

N[C@@H](Cc1ccc2oc3cc(=O)c4ccccc4c-3nc2c1)C(=O)O
GI50 [1]: 16.6 µM (inactive)
GI50 [2]: > 100 µM (inactive)

Cc1cccc2c1CC(C1OC(=O)c3ccccc31)C2=O (stereo unspecified)
GI50 [1]: > 100 µM (inactive)
GI50 [2]: > 100 µM (inactive)

O=C1CC2(CCNCC2)C(=O)N1N1CCCC1
GI50 [1]: > 100 µM (inactive)
GI50 [2]: > 100 µM (inactive)

COc1c(C)c(C/C=C(\C)CCCCO)c(OC)c(OC)c1OC
GI50 [1]: > 100 µM (inactive)

NC(=O)NCCCC(NC(=O)OCCCCCn1ccc(=O)[nH]c1=O)C(=O)O (stereo unspecified)
GI50 [1]: > 100 µM (inactive)
GI50 [2]: > 100 µM (inactive)

O=c1cc(NNc2cccc3ccccc23)[nH]c(=O)[nH]1
GI50 [1]: 12.1 µM (inactive)
GI50 [2]: 10.2 µM (inactive)

[N-]=[N+]=C(C(=O)C(=[N+]=[N-])C(=O)c1ccccc1)C(=O)c1ccccc1
GI50 [1]: > 100 µM (inactive)

C=C(C)C1CC2(C)C(C)CC(O)CC2C(OC(=O)C=C(C)C)C1O (stereo unspecified)
GI50 [1]: 36.4 µM (inactive)
GI50 [2]: 31.8 µM (inactive)

C=CCc1ccc(Oc2cc(CC=C)c3c(c2O)O[C@@H](CO)[C@H]3c2ccc(O)c(-c3cc(CC=C)ccc3O)c2)cc1
GI50 [3]: > 100 µM (inactive)
GI50 [4]: 30.8 µM (inactive)
GI50 [5]: 32.9 µM (inactive)
GI50 [6]: 52.1 µM (inactive)
GI50 [7]: 42.2 µM (inactive)

C1=C\CCCCN2C[C@H]3CCCC/C=C\CCCCN4CC[C@@H]([C@H](CCCCCC/1)C4)[C@H](C3)C2
GI50 [1]: 1.75 µM (inactive)
GI50 [2]: 2.61 µM (inactive)

CCOC(=O)O/N=C1/C(=C2/C(=O)Nc3ccccc32)Nc2ccccc21
GI50 [1]: 3.91 µM (inactive)
GI50 [2]: 3.93 µM (inactive)

CC(=O)NC1C(OCc2ccccc2)OC(CO)C(O)C1OCC(=O)NC(C)C(=O)NC(CCC(=O)OCCNC(=O)c1cccc2cc3ccccc3nc12)C(N)=O (stereo unspecified)
GI50 [1]: 26.4 µM (inactive)
GI50 [2]: 22.5 µM (inactive)

CC(=O)OCC12CN(C#N)C3C4COC(CC41)C1(C(=O)N(C)c4ccccc41)C32 (stereo unspecified)
GI50 [2]: 18.8 µM (inactive)

CC1(C)OCC(COC(=O)C=[N+]=[N-])O1 (stereo unspecified)
GI50 [1]: > 100 µM (inactive)

CC1NCCC(CC(=O)O)C1CC(=O)O (stereo unspecified)
GI50 [1]: > 100 µM (inactive)
GI50 [2]: > 100 µM (inactive)

CC1=CC[C@](C)(O)[C@@]2(C)CC[C@H]3C(=C(C)C)C(=O)C[C@]3(C)C[C@H]12
GI50 [2]: 28.9 µM (inactive)

COC(=O)c1ccccc1C1CN=NC12Cc1ccc3ccccc3c1C2=O (stereo unspecified)
GI50 [1]: > 100 µM (inactive)
GI50 [2]: 21.1 µM (inactive)

O=C1c2ccccc2C(=O)N1c1nc(-c2ccc(Cl)cc2)cc(N2N=C(c3ccc(Br)cc3)CC2c2ccccc2)n1 (stereo unspecified)
GI50 [1]: 1.03 µM (active)
GI50 [2]: 1.88 µM (inactive)

CC1=C(C)C2(C#N)C(=O)N3C(=NC(c4ccccc4)NC3c3ccccc3)C2(C#N)C(c2ccccc2)N1 (stereo unspecified)
GI50 [1]: > 100 µM (inactive)
GI50 [2]: > 100 µM (inactive)

CN1C(Cl)=NS(=O)(=O)c2ccccc21
GI50 [1]: > 100 µM (inactive)
GI50 [2]: > 100 µM (inactive)

Cc1ccc(/C=C2\CN(C)CC3C(c4ccc(C)cc4)=C(C#N)C(=O)NC23)cc1 (stereo unspecified)
GI50 [1]: > 50 µM (inactive)
GI50 [2]: > 50 µM (inactive)

FC(F)(F)C1(c2ccccc2)SCc2nc3ccccc3n21 (stereo unspecified)
GI50 [1]: 38.3 µM (inactive)
GI50 [2]: 62.8 µM (inactive)

COC(=O)C1=C(C(=O)OC)C2(c3ccccc3)c3ccccc3C(=O)C1N2C1CCCCC1 (stereo unspecified)
GI50 [1]: > 65 µM (inactive)
GI50 [2]: > 100 µM (inactive)

O=C(NCCCCNCCCNC(=O)c1cc(-c2ccccc2)nc2ccccc12)c1cc(-c2ccccc2)nc2ccccc12
GI50 [1]: 1.83 µM (inactive)
GI50 [2]: 1.87 µM (inactive)

C1CCCCC2(CCCCCCCCC3(CCC1)OCCO3)OCCO2
GI50 [1]: > 100 µM (inactive)
GI50 [2]: > 100 µM (inactive)

COc1ccc2c(c1)N=C1CSC(c3cc([N+](=O)[O-])ccc3Cl)N1C2 (stereo unspecified)
GI50 [1]: 20.1 µM (inactive)
GI50 [2]: 29.5 µM (inactive)

C#CC(O)/C=C/C(O)CCCC(O)CC#CC(O)C#CC(O)CCCC(O)/C=C/CCCC(=O)CCCCCCCCCCCCCCCC(O)C(O)C#CC(=O)O (stereo unspecified)
GI50 [1]: > 50 µM (inactive)
GI50 [2]: > 50 µM (inactive)

Cc1cc(N2CCCCC2)nc2ccc(Cc3ccc4nc(N5CCCCC5)cc(C)c4c3)cc12
GI50 [1]: > 100 µM (inactive)
GI50 [2]: 60.7 µM (inactive)

CCCCCCCCCCCCCC(=O)O.O=CC(O)C(O)C(OC1OC(CO)C(O)C(O)C1O)C(O)CO (stereo unspecified)
GI50 [2]: > 100 µM (inactive)

Cc1c(Cl)ccc2c(=O)c3cccc(CC(=O)O)c3oc12
GI50 [1]: > 100 µM (inactive)

COc1cc(/C=C/C(=O)N[C@@H]2C(=O)N3[C@@H]2SC(C)(C)[C@@H]3C(=O)O)cc(OC)c1OC
GI50 [1]: > 100 µM (inactive)
GI50 [2]: > 100 µM (inactive)

CCOC1c2cc(C(C)C)c(O)c(O)c2[C@@]23CCCC(C)(C)C2C1OC3=O (stereo partly specified)
GI50 [4]: > 100 µM (inactive)
GI50 [5]: > 100 µM (inactive)
GI50 [6]: 61.7 µM (inactive)
GI50 [7]: > 100 µM (inactive)

Cc1ccn2c(CCc3nnc4cc(C)ccn34)nnc2c1
GI50 [1]: > 100 µM (inactive)
GI50 [2]: > 100 µM (inactive)

CC(=O)OCCOc1cc2c([nH]c3ccccc32)c(C)c2cccc1-2
GI50 [1]: 3.16 µM (inactive)
GI50 [2]: 1.92 µM (inactive)
